What was measured:
IDH1 R132H = IDH1 R132H (Homo sapiens, UniProt O75874, R132H); experiment: In vitro NADPH depletion assay for IDH1m R132H inhibitors; type: biochemical; conditions: enzyme, diaphorase/resazurin readout, read-out: IDH R132H IC50
Experimental: (§1) A test compound is prepared as 10 mM stock in DMSO and diluted to 50× final concentration in DMSO, for a 50 μl reaction mixture. IDH enzyme activity converting alpha-ketoglutarate to 2-hydroxyglutaric acid is measured using a NADPH depletion assay. In the assay the remaining cofactor is measured at the end of the reaction with the addition of a catalytic excess of diaphorase and resazurin, to generate a fluorescent signal in proportion to the amount of NADPH remaining. IDH1-R132 homodimer enzyme is diluted to […] in 40 μl of Assay Buffer(150 mM NaCl, 20 mM Tris-Cl pH 7.5, 10 mM MgCl2, 0.05% BSA, 2 mM b-mercaptoethanol); 1 μl of test compound dilution in DMSO is added and the mixture is incubated for 60 minutes at room temperature. The reaction is started with the addition of 10 μl of Substrate Mix ([…], 5 mM alpha-ketoglutarate, in Assay Buffer) and the mixture is incubated for 90 minutes at room temperature. The reaction is terminated with the addition of 25 μl of Detection Buffer (36 μg/ml diaphorase, […], in 1× Assay Buffer), and is incubated for 1 minute before reading on a SpectraMax platereader at Ex544/Em590.
(§2) Representative compounds of formula I set forth in Table 1 were tested in this assay and the results are set forth below in Table 3.

HT1080 cells = experiment: Cellular assay, inhibition of 2-HG production (LC-MS) in HT1080 cells; type: cell-based; conditions: Homo sapiens, HT-1080, 48 hours, LC-MS of media
Experimental: Cells (HT1080 or U87MG) are grown in T125 flasks in DMEM containing 10% FBS, 1× penicillin/streptomycin and 500 ug/mL G418 (present in U87MG cells only). They are harvested by trypsin and seeded into 96 well white bottom plates at a density of 5000 cell/well in 100 μl/well in DMEM with 10% FBS. No cells are placed in columns 1 and 12. Cells are incubated overnight at 37° C. in 5% CO2. The next day test compounds are made up at 2× the final concentration and 100 μl are added to each cell well. The final concentration of DMSO is 0.2% and the DMSO control wells are plated in row G. The plates are then placed in the incubator for 48 hours. At 48 hours, 100 μl of media is removed from each well and analyzed by LC-MS for 2-HG concentrations. The cell plate is placed back in the incubator for another 24 hours. At 72 hours post compound addition, 10 mL/plate of Promega Cell Titer Glo reagent is thawed and mixed. The cell plate is removed from the incubator and allowed to equilibrate to room temperature. Then 100 μl of Promega Cell Titer Glo reagent is added to each well of media. The cell plate is then placed on an orbital shaker for 10 minutes and then allowed to sit at room temperature for 20 minutes. The plate is then read for luminescence with an integration time of 500 ms.
The IC50 for inhibition of 2-HG production (concentration of test compound to reduce 2HG production by 50% compared to control) in these two cell lines for various compounds of formula I is set forth in Table 2 above.

IDH1 R132C = IDH1 R132C (Homo sapiens, UniProt O75874, R132C); experiment: In vitro NADPH depletion assay for IDH1m R132C inhibitors; type: biochemical; conditions: enzyme, diaphorase/resazurin readout, read-out: IDH R132C IC50
Experimental: as §1
Compounds are assayed for their activity against IDH1 R132C following the same assay as above with the following modifications: Assay Buffer is (50 mM potassium phosphate, pH 6.5; 40 mM sodium carbonate, 5 mM MgCl2, 10% glycerol, 2 mM b-mercaptoethanol, and 0.03% BSA). The concentration of NADPH and alpha-ketoglutarate in the Substrate Buffer is 20 μM and 1 mM, respectively.
as §2

Sequence of IDH1 R132C (O75874 whole entry R132C): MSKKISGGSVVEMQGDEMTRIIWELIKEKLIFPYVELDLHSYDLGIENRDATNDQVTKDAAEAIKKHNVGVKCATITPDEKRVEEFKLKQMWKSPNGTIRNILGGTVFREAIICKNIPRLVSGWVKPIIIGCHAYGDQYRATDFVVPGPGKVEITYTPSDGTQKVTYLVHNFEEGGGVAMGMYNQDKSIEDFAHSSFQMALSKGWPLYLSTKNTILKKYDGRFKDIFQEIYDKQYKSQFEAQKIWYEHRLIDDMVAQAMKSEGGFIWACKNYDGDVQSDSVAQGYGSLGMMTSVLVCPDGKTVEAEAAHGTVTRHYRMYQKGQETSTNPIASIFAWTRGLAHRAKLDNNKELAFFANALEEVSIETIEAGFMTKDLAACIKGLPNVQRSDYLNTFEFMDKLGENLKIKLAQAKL
Sequence of IDH1 R132H (O75874 whole entry R132H): as the sequence (O75874 whole entry R132C) above, with C132H counted along it

Compound | IC50 (IDH1 R132H) [nM] | IC50 (HT1080 cells) [nM] | IC50 (IDH1 R132C) [nM]
C[C@H]1CC[C@@H](C(=O)N(c2cccc(F)c2)[C@H](C(=O)NC2CC(F)(F)C2)c2ccccc2Cl)N1c1ncccn1 [Compound 113, (2S,5S)—N—((S)-1-(2-chlorophenyl)-2-(3,3-difluorocyclobutylamino)-2-oxoethyl)-N-(3-fluorophenyl)-5-methyl-1-(pyrimidin-2-yl)pyrrolidine-2-carboxamide] | ≤ 100 | 100 to 500 | ≤ 100
COC(=O)NCC(=O)N(c1cccc(F)c1)[C@H](C(=O)N[C@H]1CCC(F)(F)C1)c1ccccc1Cl [Compound 97] | 100 to 500 | 500 to 1000 | 100 to 500
O=C(NC1CCC(F)(F)CC1)C(c1ccccc1Cl)N(C(=O)CNc1ncccc1F)c1cccc(F)c1 (stereo not drawn) [Compound 48] | ≤ 100 | 100 to 500 | ≤ 100
O=C(NC1CC(F)(F)C1)[C@@H](c1ccccc1Cl)N(C(=O)[C@@H]1CCN1c1ccccn1)c1cccc(F)c1 (stereo in doubt) [Compound 105] | 100 to 500 | 100 to 500 | ≤ 100
O=C(NC1CC(F)(F)C1)[C@H](c1ccccc1Cl)N(C(=O)[C@H](CO)Nc1ncccn1)c1cccc(F)c1 [Compound 109] | ≤ 100 | ≤ 100 | ≤ 100
O=C(NC1CC(F)(F)C1)[C@H](c1ccccc1Cl)N(C(=O)[C@@H]1CCN1c1ncccn1)c1cccc(F)c1 (stereo in doubt) [Compound 102] | 100 to 500 | 100 to 500 | ≤ 100
COC(=O)N[C@@H](CO)C(=O)N(c1cccc(F)c1)C(C(=O)NC1CCC(F)(F)CC1)c1ccccc1Cl (stereo partly drawn) [Compound 101] | 100 to 500 | 1000 to 2000 | 100 to 500
COC(=O)NCC(=O)N(c1cccc(F)c1)C(C(=O)NC1CCC(F)CC1)c1ccccc1Cl (stereo not drawn) [Compound 81] | 100 to 500 | 100 to 500 | 100 to 500
CC(C)OC(=O)NCC(=O)N(c1cccc(F)c1)C(C(=O)NC1CC(F)(F)C1)c1ccccc1Cl (stereo not drawn) [Compound 74] | 100 to 500 | 1000 to 2000 | 100 to 500
CCOC(=O)NCC(=O)N(c1cccc(F)c1)C(C(=O)NC1CC(F)(F)C1)c1ccccc1Cl (stereo not drawn) [Compound 75] | 100 to 500 | 500 to 1000 | 100 to 500
COC(=O)N1CCN(C(C)=O)C[C@H]1C(=O)N(c1cccc(F)c1)[C@H](C(=O)NC1CC(F)(F)C1)c1ccccc1Cl [Compound 68, (S)-Methyl 4-acetyl-2-(((S)-1-(2-chlorophenyl)-2-(3,3-difluorocyclobutylamino)-2-oxoethyl) (3-fluorophenyl)carbamoyl)piperazine-1-carboxylate] | ≤ 100 | 100 to 500 | ≤ 100
COC(=O)N[C@@H](CO)C(=O)N(c1cccc(F)c1)[C@H](C(=O)NC1CCCCC1)c1ccccc1Cl [Compound 84] | ≤ 100 | 100 to 500 | ≤ 100
O=C(NC1CCCCC1)C(c1ccc(F)cc1F)N(C(=O)Cn1cnc(Cl)c1Cl)c1cccc(F)c1 (stereo not drawn) [Compound 29] | ≤ 100 | 100 to 500 | ≤ 100
COC(=O)NCC(=O)N(c1cccc(F)c1)C(C(=O)NC1CCC(F)(F)CC1)c1ccccc1Cl (stereo not drawn) [Compound 92] | ≤ 100 | 100 to 500 | ≤ 100
COC(=O)N1C[C@H](OCCO)C[C@H]1C(=O)N(c1cccc(F)c1)[C@H](C(=O)NC1CC(F)(F)C1)c1ccccc1Cl [Compound 90] | ≤ 100 | 100 to 500 | ≤ 100
C[C@H]1CC[C@@H](C(=O)N(c2cccc(F)c2)[C@@H](C(=O)NC2CC(F)(F)C2)c2ccccc2Cl)N1c1ncccn1 [Compound 112, (2S,5S)—N—((R)-1-(2-chlorophenyl)-2-(3,3-difluorocyclobutylamino)-2-oxoethyl)-N-(3-fluorophenyl)-5-methyl-1-(pyrimidin-2-yl)pyrrolidine-2-carboxamide] | 100 to 500 | 100 to 500 | ≤ 100
O=C(NC1CC(F)(F)C1)[C@@H](c1ccccc1Cl)N(C(=O)[C@H](CO)Nc1ncccn1)c1cccc(F)c1 [Compound 108] | 100 to 500 | 100 to 500 | ≤ 100
COC(=O)N1C[C@@H](F)C[C@H]1C(=O)N(c1cccc(F)c1)[C@H](C(=O)NC1CC(F)(F)C1)c1ccccc1Cl [Compound 70] | ≤ 100 | 100 to 500 | ≤ 100
COC(=O)N1[C@H](C(=O)N(c2cccc(F)c2)[C@H](C(=O)NC2CC(F)(F)C2)c2ccccc2Cl)CCC1(C)C (single isomer, unassigned) [Compound 115] | 100 to 500 | 500 to 1000 | 100 to 500
COC(=O)NCC(=O)N(c1cccc(F)c1)[C@H](C(=O)N[C@H]1CCCCC1(F)F)c1ccccc1Cl [Compound 82] | ≤ 100 | 100 to 500 | ≤ 100
COC(=O)NCC(=O)N(c1cccc(F)c1)[C@H](C(=O)N[C@@H]1CCC(F)(F)C1)c1ccccc1Cl [Compound 98] | 100 to 500 | 1000 to 2000 | 100 to 500
O=C(NC1CC(F)(F)C1)C(c1ccccc1Cl)N(C(=O)Cn1cnc(Cl)c1Cl)c1cccc(F)c1 (stereo not drawn) [Compound 35] | ≤ 100 | 100 to 500 | ≤ 100
O=C(NC1CC(F)(F)C1)[C@H](c1ccccc1Cl)N(C(=O)[C@@H]1CCCN1c1ncccn1)c1cccc(F)c1 [Compound 69, (2S)—N—((S)-(3,3-difluorocyclobutylcarbamoyl)(2-chlorophenyl)methyl)-N-(3-fluorophenyl)-1-(pyrimidin-2-yl)pyrrolidine-2-carboxamide] | ≤ 100 | ≤ 100 | ≤ 100
C=CC(=O)Nc1cccc(N(C(=O)Cc2cccnc2)C(C(=O)NC2CC(F)(F)C2)c2ccccc2Cl)c1 (stereo not drawn) [Compound 88, N-(3-(N-(1-(2-chlorophenyl)-2-(3,3-difluorocyclobutylamino)-2-oxoethyl)-2-(pyridin-3-yl)acetamido)phenyl)acrylamide] | 500 to 1000 | 1000 to 2000 | 100 to 500
O=C1C[C@@H](C(=O)N(c2cccc(F)c2)[C@H](C(=O)NC2CC(F)(F)C2)c2ccccc2Cl)N(c2ncccn2)C1 [Compound 107] | ≤ 100 | ≤ 100 | ≤ 100
COCCO[C@@H]1C[C@@H](C(=O)N(c2cccc(F)c2)[C@H](C(=O)NC2CC(F)(F)C2)c2ccccc2Cl)N(C(=O)OC)C1 [Compound 79, (2S,4R)-methyl 2-(((S)-1-(2-chlorophenyl)-2-((3,3-difluoro-cyclobutyl)amino)-2-oxoethyl)(3-fluorophenyl)carbamoyl)-4-(2-methoxyethoxy)pyrrolidine-1-carboxylate] | ≤ 100 | ≤ 100 | ≤ 100
CC(C)(C)OC(=O)NCC(=O)N(c1cccc(F)c1)C(C(=O)NC1CCC(F)(F)CC1)c1ccccc1Cl (stereo not drawn) [Compound 93] | 100 to 500 | 1000 to 2000 | 100 to 500
COC(=O)NCC(=O)N(c1cccc(F)c1)[C@H](C(=O)N[C@@H]1CCCCC1(F)F)c1ccccc1Cl [Compound 83] | 100 to 500 | 500 to 1000 | 100 to 500
O=C(NC1CC(F)(F)C1)[C@H](c1ccccc1Cl)N(C(=O)[C@@H]1C[C@@H](O)CN1c1ncccn1)c1cccc(F)c1 [Compound 100, (2S,4R)—N—((S)-1-(2-chlorophenyl)-2-(3,3-difluorocyclobutyl-amino)-2-oxoethyl)-N-(3-fluorophenyl)-4-hydroxy-1-(pyrimidin-2-yl)pyrrolidine-2-carbox-amide] | ≤ 100 | 100 to 500 | ≤ 100
O=C(NC1CC(F)(F)C1)C(c1ccccc1Cl)N(C(=O)Cc1cccnc1)c1cccc(F)c1 (stereo not drawn) [Compound 86] | ≤ 100 | 100 to 500 | ≤ 100

Source: US20160304556A1, “[…] ACTIVE COMPOUNDS AND THEIR METHODS OF USE” (AGIOS PHARMACEUTICALS, INC, priority 2012, published 2016)
